From ChEMBL document CHEMBL5465560, “Selectivity Literature for EUbOPEN Chemogenomic Library” (2024)

Tests used:
[1] = target: Serine/threonine-protein kinase A-Raf (Homo sapiens) (UniProt P10398); experiment: Selectivity interaction (Kinase panel (KiNativ target engagement assay in Jurkat cells)) EUB0001635a ARAF; assay type: cell-based; settings: Selectivity number of off-targets 0.0, Selectivity number of targets 233.0, Source Knowledge https://www.sciencedirect.com/science/article/pii/S2451945619300674?via%3Dihub, at 1 µM
Sequence of Serine/threonine-protein kinase A-Raf (Homo sapiens) (P10398 whole entry): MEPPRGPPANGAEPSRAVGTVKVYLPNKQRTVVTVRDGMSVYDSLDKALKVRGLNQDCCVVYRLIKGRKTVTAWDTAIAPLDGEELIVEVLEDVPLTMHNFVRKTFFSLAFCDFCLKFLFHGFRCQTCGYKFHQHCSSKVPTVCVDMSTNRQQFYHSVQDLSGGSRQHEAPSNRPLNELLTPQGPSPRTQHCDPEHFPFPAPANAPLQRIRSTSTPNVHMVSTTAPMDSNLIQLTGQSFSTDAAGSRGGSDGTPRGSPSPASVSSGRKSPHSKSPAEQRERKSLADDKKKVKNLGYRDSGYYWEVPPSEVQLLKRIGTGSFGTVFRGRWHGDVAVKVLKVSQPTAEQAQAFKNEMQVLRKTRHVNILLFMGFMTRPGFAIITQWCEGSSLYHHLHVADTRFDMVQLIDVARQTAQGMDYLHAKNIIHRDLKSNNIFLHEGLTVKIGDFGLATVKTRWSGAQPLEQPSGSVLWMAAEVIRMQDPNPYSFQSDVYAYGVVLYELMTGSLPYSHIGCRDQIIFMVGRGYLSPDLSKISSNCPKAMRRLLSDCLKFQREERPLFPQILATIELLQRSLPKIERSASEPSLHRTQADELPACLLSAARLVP

[2] = target: T1, Serine/threonine-protein kinase LATS1 (Homo sapiens) (UniProt O95835); experiment: Selectivity interaction (KinomeScan (DiscoverX)) EUB0000045b LATS1
T1 sequence (whole entry): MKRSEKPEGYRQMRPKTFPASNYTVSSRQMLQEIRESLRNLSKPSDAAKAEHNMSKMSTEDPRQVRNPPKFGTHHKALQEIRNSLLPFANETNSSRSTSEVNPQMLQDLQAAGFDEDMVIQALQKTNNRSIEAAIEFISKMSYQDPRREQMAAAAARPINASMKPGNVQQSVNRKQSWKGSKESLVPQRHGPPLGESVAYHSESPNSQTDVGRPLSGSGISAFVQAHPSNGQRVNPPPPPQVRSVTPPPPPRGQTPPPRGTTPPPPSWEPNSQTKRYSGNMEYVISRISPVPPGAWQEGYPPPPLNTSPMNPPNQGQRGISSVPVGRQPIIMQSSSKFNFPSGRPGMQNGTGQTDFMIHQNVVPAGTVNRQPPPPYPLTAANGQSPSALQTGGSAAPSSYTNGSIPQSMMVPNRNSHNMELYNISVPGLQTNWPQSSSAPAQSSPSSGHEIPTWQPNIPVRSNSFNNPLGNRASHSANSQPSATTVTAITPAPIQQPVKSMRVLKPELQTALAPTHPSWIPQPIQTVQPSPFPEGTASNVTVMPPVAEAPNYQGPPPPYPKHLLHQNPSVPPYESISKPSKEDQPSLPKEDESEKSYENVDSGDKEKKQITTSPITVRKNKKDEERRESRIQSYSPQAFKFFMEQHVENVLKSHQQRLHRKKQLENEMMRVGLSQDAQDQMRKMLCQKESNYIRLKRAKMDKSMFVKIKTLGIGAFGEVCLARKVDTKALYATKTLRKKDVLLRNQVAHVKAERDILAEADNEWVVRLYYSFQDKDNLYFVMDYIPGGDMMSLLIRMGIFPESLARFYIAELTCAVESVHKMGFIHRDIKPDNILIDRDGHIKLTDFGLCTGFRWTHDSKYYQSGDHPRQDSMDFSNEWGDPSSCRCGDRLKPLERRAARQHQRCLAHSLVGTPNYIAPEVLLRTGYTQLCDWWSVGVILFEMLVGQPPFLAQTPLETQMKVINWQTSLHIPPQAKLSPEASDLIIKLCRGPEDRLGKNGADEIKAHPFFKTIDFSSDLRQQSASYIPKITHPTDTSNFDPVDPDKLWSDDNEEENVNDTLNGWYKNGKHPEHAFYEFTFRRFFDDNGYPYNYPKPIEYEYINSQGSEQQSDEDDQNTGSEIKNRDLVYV

[3] = target: Serine/threonine-protein kinase PLK2 (Homo sapiens, UniProt Q9NYY3); experiment: Selectivity interaction (KinomeScan (DiscoverX)) EUB0000695a PLK2; settings: at 100 nM
Sequence of Serine/threonine-protein kinase PLK2 (Q9NYY3 whole entry, looked up): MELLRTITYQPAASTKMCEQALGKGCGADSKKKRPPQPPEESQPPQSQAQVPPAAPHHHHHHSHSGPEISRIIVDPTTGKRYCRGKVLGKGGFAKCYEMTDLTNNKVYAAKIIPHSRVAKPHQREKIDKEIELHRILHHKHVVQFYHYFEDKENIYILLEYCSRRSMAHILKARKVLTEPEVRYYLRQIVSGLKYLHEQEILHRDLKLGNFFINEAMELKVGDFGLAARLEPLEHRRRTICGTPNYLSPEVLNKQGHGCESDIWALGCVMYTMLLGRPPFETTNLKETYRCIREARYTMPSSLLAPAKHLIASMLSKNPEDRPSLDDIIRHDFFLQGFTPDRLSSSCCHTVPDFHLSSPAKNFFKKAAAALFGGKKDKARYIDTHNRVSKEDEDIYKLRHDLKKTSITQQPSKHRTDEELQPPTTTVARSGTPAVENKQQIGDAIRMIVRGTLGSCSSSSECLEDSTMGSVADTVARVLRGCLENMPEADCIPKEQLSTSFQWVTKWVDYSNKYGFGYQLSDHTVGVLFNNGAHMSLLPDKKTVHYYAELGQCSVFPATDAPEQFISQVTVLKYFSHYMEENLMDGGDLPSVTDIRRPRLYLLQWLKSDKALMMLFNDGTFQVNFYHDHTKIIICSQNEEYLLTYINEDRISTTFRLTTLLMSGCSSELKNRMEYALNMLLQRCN

[4] = target: Macrophage-stimulating protein receptor (Homo sapiens, UniProt Q04912); experiment: Selectivity interaction (KinomeScan (DiscoverX)) EUB0001079a MST1R; settings: at 1 µM
Sequence of Macrophage-stimulating protein receptor (Q04912 25-304 limits assumed): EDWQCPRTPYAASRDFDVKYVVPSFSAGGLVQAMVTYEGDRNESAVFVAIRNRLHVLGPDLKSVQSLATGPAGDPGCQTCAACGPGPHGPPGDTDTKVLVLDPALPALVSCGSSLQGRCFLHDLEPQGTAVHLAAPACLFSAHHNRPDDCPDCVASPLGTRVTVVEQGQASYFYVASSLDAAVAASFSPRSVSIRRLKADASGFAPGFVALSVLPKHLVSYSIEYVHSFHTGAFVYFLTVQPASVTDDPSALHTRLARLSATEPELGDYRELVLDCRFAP
Sequence of Macrophage-stimulating protein receptor (Q04912 310-1400 limits assumed): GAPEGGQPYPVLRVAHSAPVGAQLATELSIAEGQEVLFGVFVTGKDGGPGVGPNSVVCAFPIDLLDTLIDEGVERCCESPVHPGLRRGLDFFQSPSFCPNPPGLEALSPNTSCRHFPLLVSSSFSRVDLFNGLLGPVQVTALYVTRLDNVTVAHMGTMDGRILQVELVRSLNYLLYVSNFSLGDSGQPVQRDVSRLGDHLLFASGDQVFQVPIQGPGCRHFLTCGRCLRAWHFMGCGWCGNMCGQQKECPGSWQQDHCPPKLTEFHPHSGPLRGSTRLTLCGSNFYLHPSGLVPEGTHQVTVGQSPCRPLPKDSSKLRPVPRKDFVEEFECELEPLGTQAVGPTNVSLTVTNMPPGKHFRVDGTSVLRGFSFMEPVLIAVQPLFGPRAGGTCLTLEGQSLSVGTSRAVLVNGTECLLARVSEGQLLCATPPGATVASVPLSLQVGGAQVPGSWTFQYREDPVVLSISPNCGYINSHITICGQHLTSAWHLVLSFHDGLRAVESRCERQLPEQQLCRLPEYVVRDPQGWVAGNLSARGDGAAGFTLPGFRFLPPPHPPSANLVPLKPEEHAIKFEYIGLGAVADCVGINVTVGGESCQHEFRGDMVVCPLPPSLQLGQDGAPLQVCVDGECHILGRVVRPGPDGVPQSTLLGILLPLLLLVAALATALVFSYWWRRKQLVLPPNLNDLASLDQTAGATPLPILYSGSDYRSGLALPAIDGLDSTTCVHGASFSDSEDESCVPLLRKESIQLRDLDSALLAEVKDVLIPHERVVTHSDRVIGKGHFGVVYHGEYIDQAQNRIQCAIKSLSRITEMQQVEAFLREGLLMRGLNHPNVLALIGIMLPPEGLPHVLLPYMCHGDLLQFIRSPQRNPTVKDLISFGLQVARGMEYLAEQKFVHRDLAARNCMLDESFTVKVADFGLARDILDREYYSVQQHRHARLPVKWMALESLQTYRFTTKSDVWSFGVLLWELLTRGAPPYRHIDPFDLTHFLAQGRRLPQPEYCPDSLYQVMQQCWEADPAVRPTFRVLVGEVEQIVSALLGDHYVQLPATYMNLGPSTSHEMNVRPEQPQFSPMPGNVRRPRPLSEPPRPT

[5] = target: Serine/threonine-protein kinase pim-3 (Homo sapiens) (UniProt Q86V86); experiment: Selectivity interaction (KinomeScan (DiscoverX)) EUB0001079a PIM3; settings: at 1 µM
[6] = target: Cyclin-dependent kinase 1/cyclin B (Homo sapiens) (UniProt P06493+P14635+Q8WWL7+O95067); experiment: Selectivity interaction (Upstate Kinase Profiler service (Millipore)) EUB0000056c CDK1; assay type: protein-complex assay; settings: at 1 µM
[7] = target: Cyclin-dependent kinase 7/ cyclin H (Homo sapiens) (UniProt P51946+P50613); experiment: Selectivity interaction (Upstate Kinase Profiler service (Millipore)) EUB0000056c CDK7; assay type: protein-complex assay; settings: at 1 µM
[8] = target: T2, Aurora kinase A (Homo sapiens) (UniProt O14965); experiment: Selectivity interaction (ActivX KiNativ screen (kinase selectivity in THP-1 cell lysates)) EUB0000639a STK6; assay type: subcellular; settings: lysate, at 5 µM
T2 sequence (whole entry): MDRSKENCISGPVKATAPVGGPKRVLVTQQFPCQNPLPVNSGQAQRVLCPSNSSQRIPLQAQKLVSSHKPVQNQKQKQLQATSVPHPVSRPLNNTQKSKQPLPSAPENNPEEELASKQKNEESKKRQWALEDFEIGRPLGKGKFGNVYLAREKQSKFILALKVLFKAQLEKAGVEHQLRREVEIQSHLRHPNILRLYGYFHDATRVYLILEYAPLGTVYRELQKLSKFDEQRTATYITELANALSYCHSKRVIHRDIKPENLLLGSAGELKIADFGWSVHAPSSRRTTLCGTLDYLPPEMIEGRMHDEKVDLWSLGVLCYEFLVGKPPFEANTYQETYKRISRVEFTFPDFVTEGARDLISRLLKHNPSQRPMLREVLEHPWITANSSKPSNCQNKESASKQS

[9] = target: T3, Tyrosine-protein kinase ITK/TSK (Homo sapiens) (UniProt Q08881); settings: at 10 µM
T3 sequence (whole entry): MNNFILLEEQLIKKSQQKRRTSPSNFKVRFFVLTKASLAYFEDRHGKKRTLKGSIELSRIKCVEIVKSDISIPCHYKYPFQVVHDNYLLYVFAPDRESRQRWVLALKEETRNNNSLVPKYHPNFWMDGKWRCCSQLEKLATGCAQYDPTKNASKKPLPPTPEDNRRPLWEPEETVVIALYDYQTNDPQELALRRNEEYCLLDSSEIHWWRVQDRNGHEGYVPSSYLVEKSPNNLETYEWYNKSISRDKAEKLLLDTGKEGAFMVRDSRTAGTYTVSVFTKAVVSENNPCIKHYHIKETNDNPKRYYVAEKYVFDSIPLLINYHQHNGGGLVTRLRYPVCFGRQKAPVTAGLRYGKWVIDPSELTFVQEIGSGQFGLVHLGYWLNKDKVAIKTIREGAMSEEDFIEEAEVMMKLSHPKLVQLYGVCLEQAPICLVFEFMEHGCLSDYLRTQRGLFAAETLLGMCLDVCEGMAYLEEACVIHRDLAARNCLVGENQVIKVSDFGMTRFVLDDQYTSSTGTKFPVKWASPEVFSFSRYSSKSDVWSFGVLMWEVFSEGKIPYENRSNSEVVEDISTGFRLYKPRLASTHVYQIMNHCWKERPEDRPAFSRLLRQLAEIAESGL

[10] = target: Hepatocyte growth factor-like protein (Homo sapiens) (UniProt P26927); settings: at 10 µM

C=CC(=O)Nc1ccc(C(=O)Nc2[nH]nc3c2CN(C(=O)N[C@H](CN(C)C)c2ccccc2)C3(C)C)cc1
% of engagement [1]: -2.2%

C=CC(=O)Nc1cc(-n2c(=O)ccc3cnc4ccc(-c5ccc(NS(C)(=O)=O)cc5)cc4c32)ccc1C
% of control ([2]; at 1 µM): 100% | % of control ([2]; at 10 µM): 100%

Cc1cc(F)c(C(=O)Nc2cccc(-c3nncn3C(C)C)n2)cc1-n1cnc(C2CC2)c1
% of control [3]: 88%

Nc1cnc(N2CCc3cc(S(=O)(=O)Nc4c(F)cc(Cl)cc4F)cc(N4CCCC4=O)c32)nc1 [TP-020n]
% of control [4]: 98% | % of control [5]: 98%

Cc1ccc(-c2ccc3c(ccc4sc5c(c43)NC[C@@H](C)NC5=O)n2)cn1
% of inhibition [6]: 68% | % of inhibition [7]: 5%

CC[C@@H]1[C@H](F)C(=O)N[C@@H]1COc1nccc2cc(C(N)=O)c(OC)cc12 [ZIMLOVISERTIB]
% of inhibition [8]: 57.8%

CCN(CC)CCCCNc1ncc2cc(-c3cc(OC)cc(OC)c3)c(NC(=O)NC(C)(C)C)nc2n1
% of control [9]: 100% | % of control [10]: 100%
